Data: paper PMC6982876, “Synthesis of Novel Benzodifuranyl; 1,3,5-Triazines; 1,3,5-Oxadiazepines; and Thiazolopyrimidines Derived from Visnaginone and Khellinone as Anti-Inflammatory and Analgesic Agents” (Molecules, 2020)
Marks after values point to notes of the source that are not given here.

Tests used:
[1] = test system: acetic acid-induced writhing in mice; assay: Acetic acid-induced writhing test (analgesic activity); type: in vivo; settings: 10 mg/kg p.o., n = 5; for Writhing Number in 20 min (Mean ± SEM): acetic acid 1 h after dosing; for Analgesic Activity (% protection): writhing test
Protocol: The analgesic activity of the compounds was performed using the writhing test as described by Gawade et al.. Mice weight ranged from 25 to 30 g. Then, mice were divided into 18 different groups, each containing five animals. The animals fasted for 8 h before the experiment. Administration of the compounds (10 mg/kg, p.o.) was performed orally. Equal doses of diclofenac as the reference drug and saline as a negative control were also administrated orally. Writhing was induced one hour after compound administration by using 0.1 mL of 1% glacial acetic acid at a volume of 0.1 mL/10 g body weight. The number of writhing responses (stretching of the abdomen, extension of hind limbs, twisting of the trunk, and elongation of the body) observed was counted for 20 min. The protection percentile against acetic acid-induced writhing was calculated according to the following formula: (1) Analgesic activity (%) =n−n′/n×100* where n is the mean number of writhes of the control group, and n’ is the mean number of writhes of the tested compound group.

ovine COX-1 = molecular target: T1, ovine COX-1 (Ovis aries, UniProt P05979); assay: In vitro COX inhibitor screening assay (EIA kit, Cayman), COX-1; type: biochemical; settings: mean of two determinations, enzyme kit, read-out: COX1 IC50
T1 construct: purchased Cayman Chemical, Ann Arbor, MI, USA 560131
T1 sequence (P05979 25-600): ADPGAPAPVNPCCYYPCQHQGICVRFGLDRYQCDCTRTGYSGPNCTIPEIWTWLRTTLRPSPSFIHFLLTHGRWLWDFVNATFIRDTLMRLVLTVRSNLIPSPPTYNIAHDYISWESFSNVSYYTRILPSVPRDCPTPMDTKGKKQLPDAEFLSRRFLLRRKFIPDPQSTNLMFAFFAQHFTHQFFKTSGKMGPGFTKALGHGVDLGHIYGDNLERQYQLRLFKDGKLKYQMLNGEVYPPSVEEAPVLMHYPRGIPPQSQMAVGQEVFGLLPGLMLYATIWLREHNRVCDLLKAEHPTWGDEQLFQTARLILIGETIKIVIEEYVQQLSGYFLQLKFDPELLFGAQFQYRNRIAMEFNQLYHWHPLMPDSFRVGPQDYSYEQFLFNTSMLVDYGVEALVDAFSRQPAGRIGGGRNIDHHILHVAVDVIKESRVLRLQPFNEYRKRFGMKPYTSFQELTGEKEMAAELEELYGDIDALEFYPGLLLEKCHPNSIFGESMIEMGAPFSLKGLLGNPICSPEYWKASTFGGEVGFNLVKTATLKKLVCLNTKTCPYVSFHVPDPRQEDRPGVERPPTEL
Protocol: (§1) Furthermore, the selectivity index for COX-2 (COX-1 IC50 / COX-2 IC50) was calculated for the compounds.

human recombinant COX-2 = molecular target: T2, human recombinant COX-2 (Homo sapiens, UniProt P35354); assay: In vitro COX inhibitor screening assay (EIA kit, Cayman), COX-2; type: biochemical; settings: for COX2 (SI) selectivity index: COX-1 IC50 / COX-2 IC50; for IC50: COX-2, mean of two determinations, enzyme kit, read-out: COX2 IC50
T2 construct: purchased Cayman Chemical, Ann Arbor, MI, USA 560131
T2 sequence (P35354 18-604): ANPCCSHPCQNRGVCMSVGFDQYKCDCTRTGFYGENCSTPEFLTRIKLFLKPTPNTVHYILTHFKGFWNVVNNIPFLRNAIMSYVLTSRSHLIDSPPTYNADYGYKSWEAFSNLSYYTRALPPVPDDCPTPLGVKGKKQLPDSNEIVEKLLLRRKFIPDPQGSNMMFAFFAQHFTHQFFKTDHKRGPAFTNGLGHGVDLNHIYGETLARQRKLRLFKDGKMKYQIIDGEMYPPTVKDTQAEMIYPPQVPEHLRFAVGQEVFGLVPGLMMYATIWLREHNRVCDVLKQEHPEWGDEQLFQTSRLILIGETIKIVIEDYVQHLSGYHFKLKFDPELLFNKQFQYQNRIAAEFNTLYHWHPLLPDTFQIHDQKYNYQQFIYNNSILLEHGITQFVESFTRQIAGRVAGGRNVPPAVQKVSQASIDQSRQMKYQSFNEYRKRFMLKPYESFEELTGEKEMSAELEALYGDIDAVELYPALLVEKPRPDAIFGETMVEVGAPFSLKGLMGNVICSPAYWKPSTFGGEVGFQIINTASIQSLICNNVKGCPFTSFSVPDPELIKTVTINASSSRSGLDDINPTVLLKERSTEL
Protocol: as §1

[2] = test system: interleukin-1 beta (IL-1 β); assay: ELISA of serum interleukin-1 beta after paw edema test; type: in vivo, rats; settings: rat serum at the end of the paw edema test, mean ± SEM, n = 5
Protocol: IL1 is one of the important inflammatory mediators and is used to confirm the anti-inflammatory activities of new anti-inflammatory compounds. At the end of the paw edema test, blood samples were collected from the orbital axis of the eye under light ether anesthesia. Sera were separated after centrifugation of blood at 5000 rpm for 15 min; the sera were stored at –80 °C until the ELISA assay was performed according to the manufacturer instructions.

[3] = test system: carrageenan-induced paw edema in rats; assay: Carrageenan-induced paw edema (anti-inflammatory activity); type: in vivo; settings: 10 mg/kg oral; for % Change in Paw Height (Mean ± SEM): n = 5
Protocol: Albino rats (150–180 g) were used. The rats were divided into 11 experimental groups of five rats each. One hour after oral administration of the compounds (10 mg/kg), 0.1 mL of 1% carrageenan solution was injected in the left hind paw of each animal. Rat paw volumes were measured with a digital caliber plethysmometer (UGO Basile, Varese, Italy) used to measure inflammation height at 0, 1, 2, and 3 h after carrageenan injection. The percentage increase in inflammation in the left hind paw, in comparison to the uninjected right hind paw, was determined, calculated, and expressed as the amount of inflammation. […] The anti-inflammatory activity of the selected analgesic compounds after 3 h was expressed as percentage inhibition of edema, which was calculated according to the following equation: (2) Inhibition of edema (%) =Vcont−Vtest/Vcont×100* where V cont is the edema volume in the control group, and V test is the edema volume in the group of the screened compound.

Row | SMILES | melting point | IC50 (ovine COX-1) | COX2 (SI) selectivity index (human recombinant COX-2) | IC50 (human recombinant COX-2) | Writhing Number in 20 min (Mean ± SEM) [1] | Analgesic Activity (% protection) [1] | IL-1 β Concentration [2] | % Change in Paw Height (Mean ± SEM) ([3]; 1 hr after carrageenan) | % Change in Paw Height (Mean ± SEM) ([3]; 2 hr after carrageenan) | Anti-Inflammatory Activity (% Inhibition of Edema) ([3]; 3 hr after carrageenan) | % Change in Paw Height (Mean ± SEM) ([3]; 3 hr after carrageenan)
1 | COc1ccc(C=C2OC(c3oc4c(OC)c5occc5c(OC)c4c3C)=NC3=CC(=O)N4C(=O)C(=Cc5ccc(OC)cc5)SC4N3C2=O)cc1 (centres unmarked) [Compound 13f, 8-(4,8-dimethoxy-3-methylbenzo[1,2-b:5,4-b`]difuran-2-yl)-2,10-bis(4-methoxybenzylidene)-5H,12aH-thiazolo[2’,3’:2,3]pyrimido[6,1-d][1,3,5]oxadiazepine-3,5,11(2H,10H)-trione] | > 350 °C | 5.45 µM | 94 | 0.058 µM | 30 ± 1.8 ^a | 45 ± 0.95 ^a % | 36 ± 0.25 ^b Pg /mL | 0.24 ± 0.02 ^a % | 0.18 ± 0.02 ^a % | 62% | 0.21 ± 0.01 ^a %
2 | COc1ccc(C=C2OC(c3oc4cc5occc5c(OC)c4c3C)=NC3=CC(=O)N4C(=O)C(=Cc5ccc(OC)cc5)SC4N3C2=O)cc1 (centres unmarked) [Compound 13c, 8-(4-methoxy-3-methylbenzo[1,2-b:5,4-b`]difuran-2-yl)-2,10-bis(4-methoxybenzylidene)-5H,12aH-thiazolo[2’,3’:2,3]pyrimido[6,1-d][1,3,5]oxadiazepine-3,5,11(2H,10H)-trione] | > 350 °C | 5.52 µM | 92 | 0.06 µM | 31 ± 1.1 ^a | 44 ± 0.85 ^a % | 37 ± 0.57 ^b Pg /mL | 0.25 ± 0.01 ^a % | 0.19 ± 0.02 ^a % | 61% | 0.22 ± 0.02 ^a %
3 | COc1c2occc2c(OC)c2c(C)c(C(=Nc3cc(N4CCNCC4)nc(N4CCNCC4)n3)N3CCNCC3)oc12 [Compound 10c, N-(2,6-di (piperazin-1-yl)pyrimidin-4-yl)-1-(4,8-dimethoxy-3-methylbenzo [1,2-b: 5,4-b`]difuran-2-yl)-1-(piperazin-1-yl) methanimine] | – | 4.15 µM | – | – | 24 ± 1.5 ^a | 51 ± 1.4 ^a % | 30 ± 0.70 ^b Pg /mL | 0.18 ± 0.01 ^a % | 0.13 ± 0.02 ^a % | 68% | 0.15 ± 0.02 ^a %

Continued, in another order:

Row | melting point | IC50 (ovine COX-1) | COX2 (SI) selectivity index (human recombinant COX-2) | IC50 (human recombinant COX-2) | SMILES | Writhing Number in 20 min (Mean ± SEM) [1] | Analgesic Activity (% protection) [1] | IL-1 β Concentration [2] | % Change in Paw Height (Mean ± SEM) ([3]; 1 hr after carrageenan) | % Change in Paw Height (Mean ± SEM) ([3]; 2 hr after carrageenan) | Anti-Inflammatory Activity (% Inhibition of Edema) ([3]; 3 hr after carrageenan) | % Change in Paw Height (Mean ± SEM) ([3]; 3 hr after carrageenan)
4 | > 350 °C | 6.4 µM | 85 | 0.075 µM | COc1c2ccoc2cc2oc(C3=NC4=CC(=O)N5C(=O)CSC5N4C(=O)CO3)c(C)c12 (centres unmarked) [Compound 12a, 8-(4-methoxy-3-methylbenzo[1,2-b:5,4-b`]difuran-2-yl)-5H,12aH-thiazolo[2’,3’:2,3] pyrimido[6,1-d][1,3,5]oxadiazepine-3,5,11(2H,10H)-trione] | 35 ± 1.2 ^a | 40 ± 1.50 ^a % | 41 ± 0.85 ^b Pg /mL | 0.28 ± 0.02 ^a % | 0.23 ± 0.01 ^a % | 57% | 0.26 ± 0.01 ^a %
5 | 245 to 247 °C | 18.1 µM | 48 | 0.375 µM | COc1c2ccoc2cc2oc(C(=O)Nc3cc(=O)[nH]c(=S)[nH]3)c(C)c12 [Compound 5a, 4-methoxy-3-methyl-N-(6-oxo-2-thioxo-1,2,3,6-tetrahydropyrimidin-4-yl) benzo [1,2-b: 5,4-b`] difuran-2-carboxamide] | 54 ± 1.6 ^a,b | 21 ± 2.10% | – | 0.45 ± 0.03 ^a % | 0.36 ± 0.02 ^a % | 28% | 0.46 ± 0.02 ^a %
6 | 266 to 268 °C | 17.9 µM | 50 | 0.36 µM | COc1c2occc2c(OC)c2c(C)c(C(=O)Nc3cc(=O)[nH]c(=S)[nH]3)oc12 [Compound 5b, 4,8-dimethoxy-3-methyl-N-(6-oxo-2-thioxo-1,2,3,6-tetrahydropyrimidin-4-yl) benzo [1,2-b: 5,4-b`] difuran-2-carboxamide] | 52 ± 1.4 ^a,b | 23 ± 0.70% | – | 0.42 ± 0.04 ^a % | 0.34 ± 0.01 ^a % | 30% | 0.44 ± 0.03 ^a %
7 | 327 to 329 °C | 7.18 µM | 80 | 0.09 µM | COc1c2occc2c(OC)c2c(C)c(C(=O)Nc3cc(=O)n4c(n3)SCC4=O)oc12 [Compound 7b, N-(3,5-dioxo-2,3-dihydro-5H-thiazolo[3,2-a]pyrimidin-7-yl)-4,8-dimethoxy-3-methylbenzo [1,2-b:5,4-b`]difuran-2-carboxamide] | – | 35 ± 1.14% | – | 0.30 ± 0.02 ^a % | 0.25 ± 0.01 ^a % | 52% | 0.29 ± 0.01 ^a %
8 | > 350 °C | 11.1 µM | 72 | 0.155 µM | COc1c2occc2c(OC)c2c(C)c(C(Cl)=Nc3cc(Cl)nc(SC)n3)oc12 [Compound 9b, N-(6-chloro-2-(methylthio)pyrimidin-4-yl)-4,8-dimethoxy-3-methylbenzo [1,2-b: 5,4-b`] difuran-2-carbimidoyl chloride] | 44 ± 2.5 ^a,b | 32 ± 1.2% | – | 0.33 ± 0.02 ^a % | 0.27 ± 0.01 ^a % | 48% | 0.31 ± 0.01 ^a %
